Converted amounts (≈) assume the structure as drawn. Like-named read-outs stand apart in the source and are kept apart here.
Columns and labels:
[1] = Solubility in DMSO / DMSO-d6 observed during 1H NMR; assay type: physicochemical; details: DMSO / DMSO-d6, NMR sample
Description: ^1H NMR was used to confirm the presence of AD in the AD-EM (Figure S1). Both EM and AD-EM were dissolved in deuterated dimethyl sulfoxide (DMSO-d6) and spectra acquired. The spectra are in agreement with the reported literature spectra, thus we looked to see changes in the spectra following the conjugation reaction. The processed spectra of each species were compared to monitor structural differences between protons from EM and AD-EM. The AD-EM spectra confirms the presence of both AD and EM, as well as hydrazone formation, indicating successful reaction. In the NMR spectra of AD-EM, AD attachment is confirmed by the presence of two multiplet peaks at approximately 1.9 ppm and from 1.6–1.8 ppm, corresponding to protons from the fused cyclohexane rings of AD. In the spectra of the AD-EM, a singlet peak, corresponding to a hydrazone, appears at 9.0 ppm. […] However, peak placement is consistent between AD-EM and EM, indicating the presence of both species in the AD-EM conjugate.
EM (approximately 40 mg) and AD-EM (approximately 40 mg) were dissolved in 500 µL of DMSO-d6, and sonication was used to promote dissolution. Samples were analyzed on a 600 MHz Varian Nuclear Magnetic Resonance Spectrometer, using 128 scans and a 45 degree pulse angle. Spectra were analyzed using MesReNova software using the residual solvent peak from DMSO-d6 as the reference.

[2] = Acidic stability / acidic conversion absorbance spectral scan; assay type: physicochemical; details: for Acidic conversion over several hours (absorbance pattern, words): pH 5.0 vs neutral vs acidic later neutralized, t = several hours
Description: The PBS solution was diluted to a concentration of 70 μM and concentrated sulfuric acid ([…]) was added to the solution in a volume equal to that of the total volume of the initial 70 µM solution to elicit a color change detectable with absorbance spectroscopy. Two separate solutions were initially created with the acetate buffer. One solution was diluted to 70 μM and allowed to sit for several hours at room temperature. The other acetate solution was diluted to a slightly higher concentration, sat for 1 h at room temperature, was neutralized with sodium hydroxide (0.1 N) (such that the concentration of the solution was 70 µM), and sat for several more hours at room temperature. Both acetate solutions were treated with equal volumes of sulfuric acid to elicit a color change.

[3] = Solubility study in aqueous buffers and organic solvents; assay type: physicochemical
Description: The solubility of AD-EM compared to EM was evaluated in several different aqueous buffers (i.e., PBS, Water, Acetate pH 5.0) and polar solvents (i.e., methanol, ethyl acetate, acetone). The solubility study presented in Table 1 further verifies that modified AD-EM is more hydrophobic than EM due to the addition of the hydrophobic AD group. […] The increased hydrophobicity of AD-EM is desirable to enhance its ability to bind to tissue, thereby increasing its tissue residence time and therapeutic activity.
Small samples of both EM and AD-EM (1–3 mg samples for aqueous solvents (water, PBS (pH 7.4), and acetate buffer (pH 5.0)); 10 mg samples for methanol, ethyl acetate, and acetone) were placed in individual vials. Each solvent was gradually added to either the EM or AD-EM samples in 50–100 µL increments until the drug sample was completely dissolved and the solution was homogeneous. Three trials were completed for each drug in each solvent and the results are reported as an average of these three trials. The solubility limit of each drug was determined to be the minimum amount of volume of each solvent where the drug was completely soluble.

S. aureus biofilms [4] = assay: Bacterial biofilm penetration study (colonies remaining in mature biofilm); assay type: cell-based, Staphylococcus aureus; details: for % Control Colonies Remaining: 1.25 mg/mL, mature (72 h) biofilm, vs 90% PBS/10% DMSO control; for Original colonies in the biofilm eradicated: 1 h exposure; for Original colonies killed: 7 h exposure; for Additional killing compared to the 7 h time point: 24 h exposure
Description: The ability to penetrate through the biofilm is related to the number of bacteria remaining in the biofilm after exposure to a drug compared to the control condition (90% PBS/10% DMSO). The control condition was set-up in such a way that the biofilm coated cyclodextrin polymer was placed in a solution under the same conditions used to make the drug-containing solutions. The colonies remaining in the biofilms after 1, 7, and 24 h after being treated with AD-EM, EM, or the control solution are reported in Table 2, where the remaining colonies from drug-treated biofilms are compared to the number of colonies in a control solution. After only 1 h of exposure to the drug (AD-EM or EM), nearly 30% of the original colonies in the biofilm were eradicated, and after 7 h of drug (AD-EM or EM) exposure >85% of the original colonies were killed. […] We hypothesize that this could be due to presence of planktonic bacteria naturally resistant to antibiotic effect, as well as the development of drug-resistant bacteria that are unable to be fully eradicated even after extended periods of exposure time to the drug. […] High variability in the studies reflects both the inconsistent nature of the biofilm as well as difficulty recovering bacteria to make accurate counts.
5 mm insoluble cyclodextrin polymer disks were placed in 3 mL solutions of 2× Trypticase soy broth with 30 μL of freshly cultured GFP-labeled S. aureus. Solutions were incubated at 37 °C for 72 h to form a mature biofilm. Each condition was set-up in triplicate. Following incubation, polymer disks were removed from the bacterial culture, excess broth removed, and placed in a 1.25 mg/mL drug solution of either EM or AD-EM dissolved in PBS with 10% DMSO. As a control, biofilm coated disks were also placed in a solution of just PBS and 10% DMSO. Each solution was placed in a laboratory shaker at 37 °C for either 1, 7, or 24 h. After this time, disks were removed from the drug solution, dried off, and placed in 4 mL of sterile Trypticase soy broth and homogenized for 30 s with an Omni TH homogenizer. Then, 70 μL of each solution was spread in duplicate on Trypticase soy agar plates and incubated overnight. Bacterial colonies were then counted and averaged using ImageJ software. Bacterial eradication was calculated as the percentage of colonies remaining in drug treated samples after different time points compared to the control colonies at that time point.

S. aureus = assay: Zone of inhibition antibacterial study with drug-loaded insoluble cyclodextrin polymer disks; assay type: cell-based, Staphylococcus aureus; details: approximately two weeks
Description: A zone of inhibition study against S. aureus was conducted for approximately two weeks using EM and AD-EM loaded into insoluble cyclodextrin polymer disks to evaluate whether the chemical modification altered the intrinsic antimicrobial activity of EM (Figure 4). […] It is possible that the slight decrease in antibacterial activity after 8 days in AD-EM (compared to EM) can be attributed to the presence of both species in the final AD-EM composition.
Synthesis of insoluble cyclodextrin polymer disks was carried out according to a previously published protocol by Thatiparti et al.. Briefly, 1 g cyclodextrin (CycloLab, Budapest, Hungary) was dissolved in 4 mL dimethylformamide (DMF) and stirred. The solution was cross-linked with hexamethylene diisocyanate (HDI; Sigma Aldrich, St. Louis, MO, USA) in a molar ratio of 1:0.16 (glucose residue: HDI). The solution was cured at 70 °C for 45 min and punched into 8 mm disks. Disks were washed to removed unreacted products over several days in 100% DMF, 50:50 DMF:water, and 100% water before use. […]
The antibacterial activity of EM and AD-EM loaded insoluble cyclodextrin polymer disks was evaluated against S. aureus (GFP labeled S. aureus kindly provided by Ed Greenfield, Case Western Reserve University, Cleveland, OH, USA) according to the protocol outlined by Thatiparti et al.. […]

S. aureus biofilms [5] = assay: Bacterial biofilm penetration study (colonies remaining in mature biofilm); assay type: cell-based, Staphylococcus aureus; details: 48 and 72 h exposure, data not shown
[6] = aqueous buffer, thermodynamic from solid, Acetate buffer, pH 5.0, n = 3, read-out: Relative solubility in acetate buffer
[7] = aqueous buffer, thermodynamic from solid, Phosphate Buffered Saline (PBS), pH 7.4, n = 3, read-out: Relative solubility in PBS
[8] = organic solvent or mixture, thermodynamic from solid, Acetone, n = 3, read-out: Relative solubility in acetone
[9] = organic solvent or mixture, thermodynamic from solid, Ethyl Acetate, n = 3, read-out: Relative solubility in ethyl acetate
[10] = organic solvent or mixture, thermodynamic from solid, Methanol, n = 3, read-out: Relative solubility in methanol
[11] = thermodynamic from solid, Water, n = 3, read-out: Relative solubility in water

| Structure (SMILES) | Solubility in DMSO [1] | Acidic conversion over several hours (absorbance pattern, words) [2] | solubility [3, 6] [µg/mL] | solubility [3, 7] [µg/mL] | solubility [3, 8] [µg/mL] | solubility [3, 9] [µg/mL] | solubility [3, 10] [µg/mL] | solubility [3, 11] [µg/mL] | % Control Colonies Remaining (S. aureus biofilms [4]; 1 h drug incubation) | Original colonies in the biofilm eradicated (S. aureus biofilms [4]) [%] | % Control Colonies Remaining (S. aureus biofilms [4]; 7 h drug incubation) | Original colonies killed (S. aureus biofilms [4]) [%] | % Control Colonies Remaining (S. aureus biofilms [4]; 24 h drug incubation) | Additional killing compared to the 7 h time point (S. aureus biofilms [4]) | Zone of inhibition activity (S. aureus) | further results |
| --- | --- | --- | --- | --- | --- | --- | --- | --- | --- | --- | --- | --- | --- | --- | --- | --- |
| NNC(=O)C12CC3CC(CC(C3)C1)C2 [AD, adamantane-1-carbohydrazide] | completely insoluble |  |  |  |  |  |  |  |  |  |  |  |  |  |  |  |
| CC[C@H]1OC(=O)[C@H](C)[C@@H](OC2C[C@@](C)(OC)[C@@H](O)[C@H](C)O2)[C@H](C)[C@@H](OC2O[C@H](C)C[C@H](N(C)C)[C@H]2O)[C@](C)(O)C[C@@H](C)/C(=N\NC(=O)C23CC4CC(CC(C4)C2)C3)[C@H](C)[C@@H](O)[C@]1(C)O (stereo partly drawn) [AD-EM, adamantane-modified erythromycin] | slightly insoluble | no distinguishable differences | 1390 ± 40 (≈ 1.53 mM) | 340 ± 10 (≈ 0.374 mM) | 37500 (≈ 41.2 mM) | > 40000 | 7300 ± 200 (≈ 8.02 mM) | 330 ± 30 (≈ 0.363 mM) | 62.7% ± 22.1% | ~30 | 14.8% ± 13.7% | > 85 | 11.7% ± 7.9% | ~ 2% | comparable activity | Acidic conversion over several days (absorbance signal, words) ([2]; pH 5.0 vs neutral, t = several days): lower absorbance signal than in neutral conditions; solubility ([3]; several polar solvents, comparable to EM, read-out: Solubility in several polar solvents): ~40000 µg/mL (≈ 43.9 mM) |
| CC[C@H]1OC(=O)[C@H](C)[C@@H](O[C@H]2C[C@@](C)(OC)[C@@H](O)[C@H](C)O2)[C@H](C)[C@@H](O[C@@H]2O[C@H](C)C[C@H](N(C)C)[C@H]2O)[C@](C)(O)C[C@@H](C)C(=O)[C@H](C)[C@@H](O)[C@]1(C)O [EM, Erythromycin] |  | noticeable acidic conversion | 15000 (≈ 20.4 mM) | 1600 ± 400 (≈ 2.18 mM) | > 40000 | > 40000 | > 40000 | 1500 ± 200 (≈ 2.04 mM) | 71.6% ± 40.2% | ~30 | 10.5% ± 6.8% | > 85 | 8.3% ± 6.6% | ~ 2% | comparable activity | Absorbance signal in acidic solution ([2]; acetate pH 5.0, several hours, after 27 N sulfuric acid, 35 μM final): 0.17; Absorbance signal, acidic solution later neutralized ([2]; acetate pH 5.0 then neutralized with NaOH, several hours): 0.22; Absorbance signal in neutral solution ([2]; neutral PBS, after 27 N sulfuric acid, 35 μM final): 0.22; Colonies remaining after extended exposure (S. aureus biofilms [5]): approximately the same number of colonies remained |
